Structures can show the parent of a compound that is named as a salt.
Columns and labels:
HBV polymerase = target: T1, HBV polymerase (Hepatitis B virus genotype D subtype ayw, UniProt P03156); test: Inhibitory activities against HBV polymerase (reverse transcriptase activity) in vitro; type: biochemical; details: read-out: Inhibitory activity of HBV-RT (%); for inhibition at 0.01 µg/mL: 0.01 μg/ml; for inhibition at 0.1 µg/mL: 0.1 μg/ml; for inhibition at 1 µg/mL: 1 μg/ml
T1 construct: made in house; host or cells: E. coli
Text: Experiment 1:Inhibitory Activities Against HBV Polymerase in vitro
Recently, the inventors of the present invention have produced a recombinant HBV polymerase that is expressed from E.coli transformant, measured its enzyme activity and filed patent applications threrof [Korean Pat. Appl. Nos. 94-3918 and 96-33998].
The inventors have also established a method of measuring the reverse transcriptase activity of HBV polymerase in vitro. The fundamental principle is the same as the ELISA method, and after reacting the substrate with biotin- and DIG-modified nucleotide, a method of recognizing the polymerized substrate as anti-DIG antibody with peroxidase was used.
20 μl of HBV polymerase, 20 μl of reaction mixture and 20 μl of test compound was mixed and reacted at 14° C.~30° C. for 18~24 hours. Then, the inhibitory effect of the test compound against reverse transcriptase activity in the HBV polymerase was examined, compared with the results of control tests without the test compound.

[1] = target: T2, HIV reverse transcriptase (Human immunodeficiency virus type 1 group M subtype B, UniProt P04585); test: In vitro inhibition test against HIV reverse transcriptase; type: biochemical; details: read-out: Inhibitory activity of HIV-RT (%); for inhibition at 0.1 µg/mL: 0.1 μg/ml; for inhibition at 1 µg/mL: 1 μg/ml
T2 construct: purchased Boehringer Mannheim
Protocol: Experiment 2: The in vitro Inhibition Test Against HIV Reverse Transcriptase
The inhibitory activity in vitro was measured using a non-radioactive reverse transcriptase assay Kit (Boehringer Mannheim).
At first, 20 μl(40 ng) of HIV-RT was added to the wells, coated with streptavidin and with the addition of 20 μl reaction mixture containing template/primer hybrid poly(A)/oligo(dT)15 and DIG-(digoxigenin)-dUTP, biotin-dUTP and TTP, 20 μl of test compound was added and reacted at 37° C. for 1 hour. The control without test compound was used for the comparison of related activity. Since DNA containing nucleotide labeled with digoxigenin and biotine was prepared by the action of HIV-RT, it was combined with streptavidin coated at the bottom of the wells. After the reaction was completed, remaining impurities were removed by washing each well with 250 μl buffer solution (pH 7.0) for 30 seconds 5 times and with the addition of 200 μl anti-DIG-POD antibody, the mixture was reacted at 37° C. for 1 hour. For the removal of remaining impurities again, the reacting solution was washed with a buffer solution and with the addition of 200 μl ABTS™ each, a substrate of POD(peroxidase), the solution was reacted at room temperature for 30 minutes. The absorbance was read by ELISA reader at 405 nm for the assay of reverse transcriptase activity and its inhibition activity.

T1 sequence (P03156 whole entry): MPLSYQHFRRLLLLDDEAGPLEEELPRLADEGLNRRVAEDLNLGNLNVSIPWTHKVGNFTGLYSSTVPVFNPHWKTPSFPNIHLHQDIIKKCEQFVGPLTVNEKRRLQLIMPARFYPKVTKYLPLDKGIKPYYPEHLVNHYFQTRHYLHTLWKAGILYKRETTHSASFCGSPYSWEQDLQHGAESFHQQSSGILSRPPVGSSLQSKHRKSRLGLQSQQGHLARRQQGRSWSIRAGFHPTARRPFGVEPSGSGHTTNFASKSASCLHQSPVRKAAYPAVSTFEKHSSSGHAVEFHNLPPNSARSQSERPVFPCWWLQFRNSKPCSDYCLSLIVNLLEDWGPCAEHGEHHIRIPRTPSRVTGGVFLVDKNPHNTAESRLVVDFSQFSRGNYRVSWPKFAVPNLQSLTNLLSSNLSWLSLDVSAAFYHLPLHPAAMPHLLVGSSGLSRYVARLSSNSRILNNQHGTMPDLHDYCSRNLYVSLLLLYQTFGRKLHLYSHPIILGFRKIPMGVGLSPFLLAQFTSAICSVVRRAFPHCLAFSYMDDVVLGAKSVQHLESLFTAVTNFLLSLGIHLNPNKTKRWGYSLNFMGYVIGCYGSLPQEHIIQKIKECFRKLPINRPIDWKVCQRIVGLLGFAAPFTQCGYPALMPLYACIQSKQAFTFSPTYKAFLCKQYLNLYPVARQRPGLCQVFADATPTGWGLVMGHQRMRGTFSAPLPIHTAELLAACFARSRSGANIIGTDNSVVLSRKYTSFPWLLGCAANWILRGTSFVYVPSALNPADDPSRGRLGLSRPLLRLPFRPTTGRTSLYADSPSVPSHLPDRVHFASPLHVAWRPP

Compound `CC(C)CNC(=O)c1ccc(C(=O)N2CCN(CCO)CC2)nc1` [Exam. 88, 6-[1-(2-hydroxyethyl)piperazin-4-yl-carbonyl]-N-isobutylnicotinamide.HCl] has an inhibition at 0.01 µg/mL (HBV polymerase) of 55%, an inhibition at 0.1 µg/mL (HBV polymerase) of 67% and an inhibition at 1 µg/mL (HBV polymerase) of 81%. It also gave an inhibition at 0.1 µg/mL [1] of 50% and an inhibition at 1 µg/mL [1] of 70%.

`Nc1cccnc1N1CCN(C(=O)c2ccc(C(=O)NC3CCOC3=O)cn2)CC1` (stereo not drawn) [Exam. 56, 2-[1-(3-amino-2-pyridyl)piperazin-4-yl-carbonyl]-5-[N-(tetrahydro-2-furanon-3-yl)carbamoyl]pyridine] was tested, and the inhibition at 0.01 µg/mL (HBV polymerase) was 65%, the inhibition at 0.1 µg/mL (HBV polymerase) was 70% and the inhibition at 1 µg/mL (HBV polymerase) was 82%. The inhibition at 0.1 µg/mL [1] was 45% and the inhibition at 1 µg/mL [1] was 74%.

In the case of `Cc1cc(NC(=O)c2ccc(C(=O)N3CCN(c4ncccc4NC(C)C)CC3)nc2)n[nH]1` [Exam. 66, 6-[1-[3-(isopropylamino)-2-pyridyl]piperazin-4-yl-carbonyl]-N-(5-methyl-1H-pyrazol-3-yl)nicotinamide], the inhibition at 0.01 µg/mL (HBV polymerase) is reported as 20%, the inhibition at 0.1 µg/mL (HBV polymerase) is reported as 53% and the inhibition at 1 µg/mL (HBV polymerase) is reported as 70%. It also gave an inhibition at 0.1 µg/mL [1] of 52% and an inhibition at 1 µg/mL [1] of 76%.

`COCCN(CCOC)C(=O)c1ccc(C(=O)N2CCN(CCO)CC2)nc1` [Exam. 100, N,N-bis(2-methoxyethyl)-6-[1-(2-hydroxyethyl)piperazin-4-yl-carbonyl]nicotinamide.HCl] was tested, and the inhibition at 0.01 µg/mL (HBV polymerase) was 20%, the inhibition at 0.1 µg/mL (HBV polymerase) was 49% and the inhibition at 1 µg/mL (HBV polymerase) was 77%. For the same compound, the inhibition at 0.1 µg/mL [1] was 40% and the inhibition at 1 µg/mL [1] was 64%.

Work on `CC(C)CNc1cccnc1N1CCN(C(=O)c2ccc(C(=O)NCCO)cn2)CC1` [Exam. 22] yielded an inhibition at 0.01 µg/mL (HBV polymerase) of 54%, an inhibition at 0.1 µg/mL (HBV polymerase) of 60% and an inhibition at 1 µg/mL (HBV polymerase) of 86%. For the same compound, the inhibition at 0.1 µg/mL [1] was 50% and the inhibition at 1 µg/mL [1] was 60%.

In the case of `CC(C)Nc1cccnc1N1CCN(C(=O)c2ccc(C(=O)NCC3CCCO3)cn2)CC1` (stereo not drawn) [Exam. 53, 2-[1-[3-(isopropylamino)-2-pyridyl]piperazin-4-yl-carbonyl]-5-[N-(tetrahydrofuran-2-yl-methyl)carbamoyl]pyridine], the inhibition at 0.01 µg/mL (HBV polymerase) is reported as 52%, the inhibition at 0.1 µg/mL (HBV polymerase) is reported as 60% and the inhibition at 1 µg/mL (HBV polymerase) is reported as 74%. It also gave an inhibition at 0.1 µg/mL [1] of 59% and an inhibition at 1 µg/mL [1] of 78%.

`CC(C)Nc1cccnc1N1CCN(C(=O)c2ccc(C(=O)NCc3ccco3)cn2)CC1` [Exam. 79, N-(2-Furylmethyl)-6-[1-[3-(isopropylamino)-2-pyridyl]piperazin-4-yl-carbonyl]nicotinamide.HCl] showed an inhibition at 0.01 µg/mL (HBV polymerase) of 54%, an inhibition at 0.1 µg/mL (HBV polymerase) of 63% and an inhibition at 1 µg/mL (HBV polymerase) of 78%. The inhibition at 0.1 µg/mL [1] was 20% and the inhibition at 1 µg/mL [1] was 54%.

Compound `CC(C)Nc1cccnc1N1CCN(C(=O)c2ccc(C(=O)NCCc3c[nH]cn3)cn2)CC1` [Exam. 80, N-[2-(1H-imidazol4-yl)ethyl]-6-[1-[3-(isopropylamino)-2-pyridyl]piperazin-4-yl-carbonyl]nicotinamide] has an inhibition at 0.01 µg/mL (HBV polymerase) of 52%, an inhibition at 0.1 µg/mL (HBV polymerase) of 61% and an inhibition at 1 µg/mL (HBV polymerase) of 70%. The inhibition at 0.1 µg/mL [1] was 21% and the inhibition at 1 µg/mL [1] was 48%.

With `CC(C)Nc1cccnc1N1CCN(C(=O)c2ccc(C(=O)NCc3ccncc3)cn2)CC1` [Exam. 77, 6-[1-[3-(isopropylamino)-2-pyridyl]piperazin-4-yl-carbonyl]-N-(4-pyridylmethyl)nicotinamide] the inhibition at 0.01 µg/mL (HBV polymerase) was 39%, the inhibition at 0.1 µg/mL (HBV polymerase) was 65% and the inhibition at 1 µg/mL (HBV polymerase) was 79%. The inhibition at 0.1 µg/mL [1] was 59% and the inhibition at 1 µg/mL [1] was 79%.

Work on `CCNc1cccnc1N1CCN(C(=O)c2ccc(C(=O)NCc3ccccn3)cn2)CC1` [Exam. 74, 6-[1-[3-(ethylamino)-2-pyridyl]piperazin-4-yl-carbonyl]-N-(2-pyridylmethyl)nicotinamide] yielded an inhibition at 0.01 µg/mL (HBV polymerase) of 19%, an inhibition at 0.1 µg/mL (HBV polymerase) of 56% and an inhibition at 1 µg/mL (HBV polymerase) of 70%. The inhibition at 0.1 µg/mL [1] was 61% and the inhibition at 1 µg/mL [1] was 80%.

`CC(C)Nc1cccnc1N1CCN(C(=O)c2ccc(C(=O)NC3CCOC3=O)cn2)CC1` (stereo not drawn) [Exam. 55, 2-[1-[3-(Isopropylamino)-2-pyridyl]piperazin-4-yl-carbonyl]-5-[N-(tetrahydro-2-fuanon-3-yl)carbamoyl]pyridine] was tested, and the inhibition at 0.01 µg/mL (HBV polymerase) was 55%, the inhibition at 0.1 µg/mL (HBV polymerase) was 69% and the inhibition at 1 µg/mL (HBV polymerase) was 79%. For the same compound, the inhibition at 0.1 µg/mL [1] was 31% and the inhibition at 1 µg/mL [1] was 62%.

Compound `CC(C)Nc1cccnc1N1CCN(C(=O)c2ccc(C(=O)NCc3ccccn3)cn2)CC1` [Exam. 73, 6-[1-[3-(isopropylamino)-2-pyridyl]piperazin-4-yl-carbonyl]-N-(2-pyridylmethyl)nicotinamide.HCl] has an inhibition at 0.01 µg/mL (HBV polymerase) of 53%, an inhibition at 0.1 µg/mL (HBV polymerase) of 62% and an inhibition at 1 µg/mL (HBV polymerase) of 77%. The inhibition at 0.1 µg/mL [1] was 57% and the inhibition at 1 µg/mL [1] was 73%.

`Nc1cccnc1N1CCN(C(=O)c2ccc(C(=O)NCc3ccccn3)cn2)CC1` [Exam. 75, 6-[1-(3-amino-2-pyridyl)piperazin-4-yl-carbonyl]-N-(2-pyridylmethyl)nicotinamide.HCl] was tested, and the inhibition at 0.01 µg/mL (HBV polymerase) was 22%, the inhibition at 0.1 µg/mL (HBV polymerase) was 54% and the inhibition at 1 µg/mL (HBV polymerase) was 72%. For the same compound, the inhibition at 0.1 µg/mL [1] was 53% and the inhibition at 1 µg/mL [1] was 72%.

`CC(C)Nc1cccnc1N1CCN(C(=O)c2ccc(C(=O)NC(C)(C)C)cn2)CC1` [Exam. 28, 5-[N-(1,1-dimethylethyl)carbamoyl]-2-[1-[3-(isopropylamino)-2-pyridyl]piperazin-4-yl-carbonyl]pyridine] was tested, and the inhibition at 0.01 µg/mL (HBV polymerase) was 61%, the inhibition at 0.1 µg/mL (HBV polymerase) was 72% and the inhibition at 1 µg/mL (HBV polymerase) was 88%. For the same compound, the inhibition at 0.1 µg/mL [1] was 45% and the inhibition at 1 µg/mL [1] was 55%.

For `CC(C)CNc1cccnc1N1CCN(C(=O)c2ccc(C(=O)NC(C)C)cn2)CC1` [Exam. 26, 2-[1-[3-(isobutylamino)-2-pyridyl]piperazin-4-yl-carbonyl]-5-(N-isopropylcarbamoyl)pyridine], the inhibition at 0.01 µg/mL (HBV polymerase) was 58%, the inhibition at 0.1 µg/mL (HBV polymerase) was 66% and the inhibition at 1 µg/mL (HBV polymerase) was 90%. It also gave an inhibition at 0.1 µg/mL [1] of 45% and an inhibition at 1 µg/mL [1] of 60%.

With `COCCNC(=O)c1ccc(C(=O)N2CCN(c3ncccc3NC(C)C)CC2)nc1` [Exam. 39, 2-[1-[3-(isopropylamino)-2-pyridyl]piperazin-4-yl-carbonyl]-5-[N-(2-methoxyethyl)carbamoyl]pyridine] the inhibition at 0.01 µg/mL (HBV polymerase) was 60%, the inhibition at 0.1 µg/mL (HBV polymerase) was 68% and the inhibition at 1 µg/mL (HBV polymerase) was 80%. For the same compound, the inhibition at 0.1 µg/mL [1] was 65% and the inhibition at 1 µg/mL [1] was 72%.

`CC(C)Nc1cccnc1N1CCN(C(=O)c2ccc(C(=O)NCCc3cccs3)cn2)CC1` [Exam. 81, 6-[1-[3-(isopropylamino)-2-pyridyl]piperazin-4-yl-carbonyl]-N-[2-(2-thienyl)ethyl]nicotinamide] was tested, and the inhibition at 0.01 µg/mL (HBV polymerase) was 44%, the inhibition at 0.1 µg/mL (HBV polymerase) was 60% and the inhibition at 1 µg/mL (HBV polymerase) was 80%. The inhibition at 0.1 µg/mL [1] was 54% and the inhibition at 1 µg/mL [1] was 75%.

In the case of `COc1ccc(NC(=O)c2ccc(C(=O)N3CCN(c4ncccc4NC(C)C)CC3)nc2)cn1` [Exam. 71, 6-[1-[3-(isopropylamino)-2-pyridyl]piperazin-4-yl-carbonyl]-N-(6-methoxy-3-pyridyl)nicotinamide], the inhibition at 0.01 µg/mL (HBV polymerase) is reported as 59%, the inhibition at 0.1 µg/mL (HBV polymerase) is reported as 70% and the inhibition at 1 µg/mL (HBV polymerase) is reported as 83%. The inhibition at 0.1 µg/mL [1] was 48% and the inhibition at 1 µg/mL [1] was 74%.

Compound `CC(C)NC(=O)c1ccc(C(=O)N2CCN(c3ncccc3NC(C)C)CC2)nc1` [Exam. 24, 2-[1-[3-(isopropylamino)-2-pyridyl]piperazin-4-yl-carbonyl]-5-(N-isopropylcarbamoyl)pyridine] has an inhibition at 0.01 µg/mL (HBV polymerase) of 23%, an inhibition at 0.1 µg/mL (HBV polymerase) of 51% and an inhibition at 1 µg/mL (HBV polymerase) of 65%. For the same compound, the inhibition at 0.1 µg/mL [1] was 30% and the inhibition at 1 µg/mL [1] was 66%.

`CCNc1cccnc1N1CCN(C(=O)c2ccc(C(=O)NCCOC)cn2)CC1` [Exam. 40, 2-[1-[3-(ethylamino)-2-pyridyl]piperazin-4-yl-carbonyl]-5-[N-(2-methoxyethyl)carbamoyl]-pyridine] showed an inhibition at 0.01 µg/mL (HBV polymerase) of 36%, an inhibition at 0.1 µg/mL (HBV polymerase) of 57% and an inhibition at 1 µg/mL (HBV polymerase) of 75%. The inhibition at 0.1 µg/mL [1] was 52% and the inhibition at 1 µg/mL [1] was 70%.

With `CC(C)Nc1cccnc1N1CCN(C(=O)c2ccc(C(=O)Nc3ncccc3O)cn2)CC1` [Exam. 85, N-(3-hydroxy-2-pyridyl)-6-[1-[3-(isopropylamino)-2-pyridyl]piperazin-4-yl-carbonyl]nicotinamide] the inhibition at 0.01 µg/mL (HBV polymerase) was 61%, the inhibition at 0.1 µg/mL (HBV polymerase) was 70% and the inhibition at 1 µg/mL (HBV polymerase) was 88%. It also gave an inhibition at 0.1 µg/mL [1] of 47% and an inhibition at 1 µg/mL [1] of 70%.
